From PubChem BioAssay AID328 (DTP/NCI, 2004)
Several values for one entry are separate records, joined by “and”; a condition that tells them apart may be missing. Equal values may be shown once. Toxic doses and inconclusive results are not listed.

System: BDF1 mice, P388 leukemia ip, median survival T/C
Assay: NCI In Vivo Anticancer Drug Screen. Data for tumor model P388 Leukemia (intraperitoneal) in B6D2F1 (BDF1) mice
Conditions: endpoint: median survival time, higher = longer survival
Method in brief: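 T/C = treated-group survival ÷ vehicle-control survival; tumour transplanted into mice before dosing.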

[1] = dose: 50.0 mg/kg/injection, schedule: Q04DX003 (ip), vehicle: saline with Tween-80
[2] = dose: 100.0 mg/kg/injection, schedule: Q04DX003 (ip), vehicle: saline with Tween-80
[3] = dose: 200.0 mg/kg/injection, schedule: Q04DX003 (ip), vehicle: saline with Tween-80
[4] = dose: 12.5 mg/kg/injection, schedule: Q01DX009 (ip), vehicle: saline with Tween-80
[5] = dose: 25.0 mg/kg/injection, schedule: Q01DX009 (ip), vehicle: saline with Tween-80
[6] = dose: 50.0 mg/kg/injection, schedule: Q01DX009 (ip), vehicle: saline with Tween-80
[7] = dose: 100.0 mg/kg/injection, schedule: Q01DX009 (ip), vehicle: saline with Tween-80
[8] = dose: 200.0 mg/kg/injection, schedule: Q01DX009 (ip), vehicle: saline with Tween-80
[9] = dose: 100.0 mg/kg/injection, schedule: Q04DX003 (ip), vehicle: Klucel (hydroxypropylcellulose) (HPC)
[10] = dose: 200.0 mg/kg/injection, schedule: Q04DX003 (ip), vehicle: Klucel (hydroxypropylcellulose) (HPC)
[11] = dose: 400.0 mg/kg/injection, schedule: Q04DX003 (ip), vehicle: Klucel (hydroxypropylcellulose) (HPC)
[12] = dose: 25.0 mg/kg/injection, schedule: Q04DX003 (ip), vehicle: saline with Tween-80
[13] = dose: 100.0 mg/kg/injection, schedule: Q04DX003 (ip), vehicle: saline
[14] = dose: 200.0 mg/kg/injection, schedule: Q04DX003 (ip), vehicle: saline
[15] = dose: 400.0 mg/kg/injection, schedule: Q04DX003 (ip), vehicle: saline
[16] = dose: 12.5 mg/kg/injection, schedule: Q01DX009 (ip), vehicle: Klucel (hydroxypropylcellulose) (HPC)
[17] = dose: 50.0 mg/kg/injection, schedule: Q01DX009 (ip), vehicle: Klucel (hydroxypropylcellulose) (HPC)
[18] = dose: 100.0 mg/kg/injection, schedule: Q01DX009 (ip), vehicle: Klucel (hydroxypropylcellulose) (HPC)
[19] = dose: 25.0 mg/kg/injection, schedule: Q01DX009 (ip), vehicle: saline
[20] = dose: 50.0 mg/kg/injection, schedule: Q01DX009 (ip), vehicle: saline
[21] = dose: 400.0 mg/kg/injection, schedule: Q01DX009 (ip), vehicle: saline

`Cc1cccc(NC(=O)C2CCC(C)(C(=O)O)C2(C)C)c1` (configuration not stated) was tested, and the T/C [1] was 100 % of control, the T/C [2] was 95 % of control and the T/C [3] was 104 % of control.

With `COc1cccc(Sc2ccc([N+](=O)[O-])c3nonc23)c1` the T/C [4] was 102 % of control and the T/C [5] was 107 % of control.

For `O=C(NC1=NN(c2ccccc2)C(=O)C1)C(Cl)c1ccccc1` (configuration not stated), the T/C [6] was 104 % of control, the T/C [7] was 95 % of control and the T/C [8] was 95 % of control.

With `CC1(C)N=C(N)N=C(N)N1c1cccc(CC(=O)Nc2ccc(S(=O)(=O)F)cc2)c1` the T/C [5] was 120 % of control, the T/C [6] was 155 % of control and the T/C [7] was 175 % of control. For the same compound, the T/C [8] was 170 % of control.

With `O=C(O)Cc1ccc(N=Nc2c(O)c(C(=O)O)cc3ccccc23)cc1` the T/C [9] was 111 % of control, the T/C [10] was 111 % of control and the T/C [11] was 100 % of control.

In the case of `CCCCCCCCCCCCNCc1ccc(O)cc1`, the T/C [12] is reported as 104 % of control, the T/C [1] is reported as 100 % of control and the T/C [2] is reported as 108 % of control.

With `CCOc1ccc(N2C(=O)CSC2=S)cc1` the T/C [6] was 104 % of control, the T/C [1] was 110 % of control and the T/C [7] was 100 % of control. For the same compound, the T/C [2] was 100 % of control, the T/C [8] was 95 % of control and the T/C [3] was 100 % of control.

`OC1C2CCC(CC2)C1O` (configuration not stated) was tested, and the T/C (dose: 4.5 mg/kg/injection, schedule: Q01DX009 (ip), vehicle: saline with Tween-80) was 100 % of control, the T/C (dose: 9.0 mg/kg/injection, schedule: Q01DX009 (ip), vehicle: saline with Tween-80) was 86 % of control and the T/C (dose: 9.0 mg/kg/injection, schedule: Q04DX003 (ip), vehicle: saline with Tween-80) was 90 % of control. The T/C (dose: 18.0 mg/kg/injection, schedule: Q04DX003 (ip), vehicle: saline with Tween-80) was 90 % of control.

With `CC1CC(C)(C)N=C(CC(C)(O)c2ccccn2)O1` (configuration not stated) the T/C (dose: 100.0 mg/kg/injection, schedule: Q01DX001 (ip), vehicle: saline sonified) was 100 % of control, the T/C (dose: 200.0 mg/kg/injection, schedule: Q01DX001 (ip), vehicle: saline sonified) was 90 % of control and the T/C (dose: 400.0 mg/kg/injection, schedule: Q01DX001 (ip), vehicle: saline sonified) was 100 % of control.

`c1ccc(SCN2CCN(CSc3ccccc3)CC2)cc1` was tested, and the T/C (dose: 50.0 mg/kg/injection, schedule: Q01DX001 (ip), vehicle: saline) was 95 % of control and the T/C (dose: 100.0 mg/kg/injection, schedule: Q01DX001 (ip), vehicle: saline) was 109 % of control.

In the case of `CC(=O)NCc1ccc([N+](=O)[O-])cc1`, the T/C [5] is reported as 103 % of control, the T/C [12] is reported as 111 % of control and the T/C [6] is reported as 103 % of control. The T/C [1] was 115 % of control, the T/C [7] was 100 % of control and the T/C [2] was 111 % of control. For the same compound, the T/C [8] was 119 % of control, the T/C [3] was 109 % of control and the T/C (dose: 400.0 mg/kg/injection, schedule: Q01DX009 (ip), vehicle: saline with Tween-80) was 95 % of control. For the same compound, the T/C (dose: 400.0 mg/kg/injection, schedule: Q04DX003 (ip), vehicle: saline with Tween-80) was 118 % of control.

In the case of `O=C(O)C(CS(=O)(=O)O)Nc1ncnc2nc[nH]c12` (configuration not stated), the T/C [13] is reported as 100 % of control, the T/C [14] is reported as 100 % of control and the T/C [15] is reported as 100 % of control.

With `Cc1c(Br)c(=O)n(-c2ccccc2)n1C` the T/C [16] was 106 % of control, the T/C (dose: 25.0 mg/kg/injection, schedule: Q01DX009 (ip), vehicle: Klucel (hydroxypropylcellulose) (HPC)) was 98 % of control and the T/C [17] was 100 % of control and 106 % of control. For the same compound, the T/C [18] was 106 % of control.

For `CN1CCN(c2cc3c(cc2[N+](=O)[O-])no[n+]3[O-])CC1`, the T/C (dose: 15.0 mg/kg/injection, schedule: Q01DX009 (ip), vehicle: saline with Tween-80) was 123 % of control, the T/C (dose: 30.0 mg/kg/injection, schedule: Q01DX009 (ip), vehicle: saline with Tween-80) was 120 % of control and the T/C (dose: 60.0 mg/kg/injection, schedule: Q01DX009 (ip), vehicle: saline with Tween-80) was 103 % of control.

`O=C1NC2(CCCCC2)C(=O)N1CCN(CCCl)CCCl` was tested, and the T/C (dose: 0.39 mg/kg/injection, schedule: Q01DX009 (ip), vehicle: saline) was 196 % of control, the T/C (dose: 0.78 mg/kg/injection, schedule: Q01DX009 (ip), vehicle: saline) was 189 % of control and the T/C (dose: 1.56 mg/kg/injection, schedule: Q01DX009 (ip), vehicle: saline) was 222 % of control. For the same compound, the T/C (dose: 3.12 mg/kg/injection, schedule: Q01DX009 (ip), vehicle: saline) was 291 % of control, the T/C (dose: 6.25 mg/kg/injection, schedule: Q01DX009 (ip), vehicle: saline) was 291 % of control and the T/C (dose: 12.5 mg/kg/injection, schedule: Q01DX009 (ip), vehicle: saline) was 120 % of control.

For `Cc1ccc(S(=O)(=O)N/N=C/C(=O)O)cc1`, the T/C (dose: 6.25 mg/kg/injection, schedule: Q01DX009 (ip), vehicle: Klucel (hydroxypropylcellulose) (HPC)) was 113 % of control and 111 % of control, the T/C (dose: 6.25 mg/kg/injection, schedule: Q01DX009 (ip), vehicle: other) was 112 % of control and the T/C [16] was 124 % of control. The T/C [17] was 191 % of control and 169 % of control and 185 % of control, the T/C [18] was 90 % of control and 101 % of control and the T/C (dose: 400.0 mg/kg/injection, schedule: Q01DX009 (ip), vehicle: Klucel (hydroxypropylcellulose) (HPC)) was 114 % of control.

`O=C(Nc1cc(Cl)ccc1Cl)O/N=C/c1ccncc1` was tested, and the T/C [4] was 106 % of control, the T/C [5] was 90 % of control and the T/C [6] was 96 % of control.

With `O=[N+]([O-])c1ccc(/C=C/c2ncccn2)o1` the T/C [9] was 100 % of control, the T/C [10] was 100 % of control and the T/C [11] was 100 % of control.

`Clc1ncnc2c1ncn2C1CCCCO1` (configuration not stated) was tested, and the T/C [19] was 90 % of control, the T/C [20] was 100 % of control and the T/C (dose: 100.0 mg/kg/injection, schedule: Q01DX009 (ip), vehicle: other) was 92 % of control. The T/C (dose: 100.0 mg/kg/injection, schedule: Q01DX009 (ip), vehicle: saline) was 95 % of control, the T/C (dose: 100.0 mg/kg/injection, schedule: Q04DX003 (ip), vehicle: other) was 108 % of control and the T/C (dose: 200.0 mg/kg/injection, schedule: Q04DX003 (ip), vehicle: other) was 108 % of control. The T/C (dose: 400.0 mg/kg/injection, schedule: Q01DX009 (ip), vehicle: other) was 115 % of control and the T/C (dose: 400.0 mg/kg/injection, schedule: Q04DX003 (ip), vehicle: other) was 108 % of control.

For `C=C1C=C(C)CC(C)(C)C1` (tested in a mixture with another compound), the T/C (dose: 100.0 mg/kg/injection, schedule: Q01DX009 (ip), vehicle: saline sonified) was 100 % of control, the T/C (dose: 200.0 mg/kg/injection, schedule: Q01DX009 (ip), vehicle: saline sonified) was 100 % of control and the T/C (dose: 400.0 mg/kg/injection, schedule: Q01DX009 (ip), vehicle: saline sonified) was 100 % of control.

For `O=C(/C=C/c1ccc(OCc2ccccc2)cc1)c1cccs1`, the T/C [6] was 98 % of control and the T/C [7] was 92 % of control.

In the case of `C=C1C[C@H]2[C@@H]3C=C(C)C4=CC(=O)CC[C@]4(C)[C@H]3CC[C@]2(C)[C@@]1(OC(C)=O)C(C)=O`, the T/C (dose: 62.5 mg/kg/injection, schedule: Q01DX010 (sc), vehicle: steriod suspending solution) is reported as 105 % of control, the T/C (dose: 125.0 mg/kg/injection, schedule: Q01DX010 (sc), vehicle: steriod suspending solution) is reported as 110 % of control and the T/C (dose: 250.0 mg/kg/injection, schedule: Q01DX010 (sc), vehicle: steriod suspending solution) is reported as 100 % of control. For the same compound, the T/C (dose: 500.0 mg/kg/injection, schedule: Q01DX010 (sc), vehicle: steriod suspending solution) was 110 % of control.

With `CC(=O)Nc1ccc(Cl)cc1C(=O)c1ccc[nH]1` the T/C [19] was 100 % of control, the T/C [20] was 95 % of control and the T/C (dose: 50.0 mg/kg/injection, schedule: Q04DX003 (ip), vehicle: saline) was 102 % of control. The T/C [13] was 98 % of control, the T/C (dose: 200.0 mg/kg/injection, schedule: Q01DX009 (ip), vehicle: saline) was 110 % of control and the T/C [14] was 100 % of control. The T/C [21] was 87 % of control and the T/C [15] was 100 % of control.

With `CC1(COCCOCC2(C)CO2)CO1` (configuration not stated) the T/C [21] was 175 % of control and the T/C (dose: 600.0 mg/kg/injection, schedule: Q01DX009 (ip), vehicle: saline) was 208 % of control.

`COc1ccc(/C=C(/C#N)c2ccccc2)cc1` was tested, and the T/C [5] was 93 % of control, the T/C [6] was 97 % of control and the T/C [7] was 103 % of control. The T/C [8] was 111 % of control.
